Laboratory results as given in the NIST ThermoML archive (doi:10.1016/j.jct.2017.01.016).

Key:
[1] = 101 kPa, Liquid; for viscosity: Capillary tube (Ostwald / Ubbelohde) method; for speed of sound: Frequency=3 MHz, Linear variable-path acoustic interferometer
[2] = xn = mol fraction of the nth substance listed; settings: 101 kPa, Liquid, x1 = 1; for viscosity: Capillary tube (Ostwald / Ubbelohde) method; for speed of sound: Frequency=3 MHz, Linear variable-path acoustic interferometer

Cc1ccccc1C [1,2-dimethylbenzene]
[1]
Settings | speed of sound [m/s] | viscosity [mPa·s]
293.15 K | 1367.7 | 0.8066
298.15 K | 1347.5 | 0.7576
303.15 K | 1329.4 | 0.7132
308.15 K | 1313.3 | 0.669
313.15 K | 1298.5 | 0.6315
318.15 K | 1285.2 | 0.5972

Cc1cc(C)cc(C)c1 [1,3,5-trimethylbenzene]
[1]
Settings | speed of sound [m/s] | viscosity [mPa·s]
293.15 K | 1360.4 | 0.7056
298.15 K | 1339.8 | 0.6592
303.15 K | 1319.6 | 0.6188
308.15 K | 1300.2 | 0.5792
313.15 K | 1280.4 | 0.5422
318.15 K | 1263 | 0.5066

Cc1cccc(C)c1 [1,3-dimethylbenzene]
[1]
Settings | speed of sound [m/s] | viscosity [mPa·s]
293.15 K | 1346.7 | 0.6184
298.15 K | 1323.6 | 0.584
303.15 K | 1302.4 | 0.5517
308.15 K | 1282.3 | 0.5229
313.15 K | 1262.3 | 0.4938
318.15 K | 1243 | 0.468

Cc1ccc(C)cc1 [1,4-dimethylbenzene]
[1]
Settings | speed of sound [m/s] | viscosity [mPa·s]
293.15 K | 1328.4 | 0.6505
298.15 K | 1307.4 | 0.6115
303.15 K | 1287.3 | 0.5766
308.15 K | 1267.6 | 0.544
313.15 K | 1248.3 | 0.5132
318.15 K | 1229.8 | 0.4862

C1COCCO1 [1,4-dioxane]
[1]
Settings | speed of sound [m/s] | viscosity [mPa·s]
293.15 K | 1367.2 | 1.306
298.15 K | 1344.7 | 1.195
303.15 K | 1323.1 | 1.096
308.15 K | 1301.2 | 1.014
313.15 K | 1279.7 | 0.945
318.15 K | 1258.6 | 0.884

C1COCCO1 [1,4-dioxane] + Cc1cc(C)cc(C)c1
[2]
Settings | speed of sound [m/s] | viscosity [mPa·s]
293.15 K | 1367.2 | 1.306
298.15 K | 1344.7 | 1.195
303.15 K | 1323.1 | 1.096
308.15 K | 1301.2 | 1.014
313.15 K | 1279.7 | 0.945
318.15 K | 1258.6 | 0.884
